The values below come from PMC8213057, “Targeting ALK2: An Open Science Approach to Developing Therapeutics for the Treatment of Diffuse Intrinsic Pontine Glioma” (Journal of Medicinal Chemistry, 2020).

Molecules are shown by their SMILES.

One assay deals with T1, TAK1 (Homo sapiens, UniProt O43318).
T1 sequence (O43318 1-303 limits assumed): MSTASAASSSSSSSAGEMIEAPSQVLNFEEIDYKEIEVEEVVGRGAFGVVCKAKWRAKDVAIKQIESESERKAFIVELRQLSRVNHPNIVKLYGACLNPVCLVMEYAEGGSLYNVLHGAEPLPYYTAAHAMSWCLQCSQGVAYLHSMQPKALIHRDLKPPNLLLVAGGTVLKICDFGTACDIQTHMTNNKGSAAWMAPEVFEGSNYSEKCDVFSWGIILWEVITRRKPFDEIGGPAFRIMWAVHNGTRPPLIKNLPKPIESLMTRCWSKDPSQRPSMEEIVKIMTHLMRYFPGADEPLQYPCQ
The following applies: 1 μM; Run 1, Run 2.

The target in the next assay is CDK17/cyclin Y (PCTK2) (Homo sapiens, UniProt Q00537). The conditions noted are these: 1 μM; Run 1, Run 2.
Sequence of CDK17/cyclin Y (PCTK2) (Q00537 whole entry): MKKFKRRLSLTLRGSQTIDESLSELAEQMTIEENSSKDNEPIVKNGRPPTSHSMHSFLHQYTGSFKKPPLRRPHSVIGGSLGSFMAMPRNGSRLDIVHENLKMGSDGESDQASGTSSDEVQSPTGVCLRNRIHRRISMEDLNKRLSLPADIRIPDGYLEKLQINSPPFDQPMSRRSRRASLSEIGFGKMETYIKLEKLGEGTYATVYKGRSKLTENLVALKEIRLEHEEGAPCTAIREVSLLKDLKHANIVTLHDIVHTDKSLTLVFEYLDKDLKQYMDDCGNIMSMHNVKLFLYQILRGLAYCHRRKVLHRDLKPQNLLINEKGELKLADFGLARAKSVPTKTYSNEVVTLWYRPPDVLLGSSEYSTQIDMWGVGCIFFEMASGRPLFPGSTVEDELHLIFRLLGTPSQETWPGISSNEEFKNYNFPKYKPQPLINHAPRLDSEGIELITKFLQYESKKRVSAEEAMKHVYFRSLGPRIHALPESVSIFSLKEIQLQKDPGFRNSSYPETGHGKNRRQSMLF
Sequence of CDK17/cyclin Y (PCTK2) (Q8ND76 whole entry partner): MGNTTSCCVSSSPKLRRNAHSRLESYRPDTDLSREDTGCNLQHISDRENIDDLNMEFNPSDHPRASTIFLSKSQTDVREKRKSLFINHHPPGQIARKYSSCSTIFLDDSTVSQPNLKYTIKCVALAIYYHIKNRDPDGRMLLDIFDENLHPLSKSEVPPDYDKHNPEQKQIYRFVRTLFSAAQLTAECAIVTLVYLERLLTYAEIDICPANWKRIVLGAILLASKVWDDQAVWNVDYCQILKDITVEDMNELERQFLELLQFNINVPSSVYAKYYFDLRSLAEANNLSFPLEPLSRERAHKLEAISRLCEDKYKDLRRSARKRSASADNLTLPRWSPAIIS
The next assay addresses MRCKb/CDC42BPB (Homo sapiens, UniProt Q9Y5S2). The following applies: 1 μM; Run 1, Run 2.
Another assay concerns the target T2, IKKe/IKBKE (Homo sapiens, UniProt Q14164).
T2 sequence (Q14164 1-716): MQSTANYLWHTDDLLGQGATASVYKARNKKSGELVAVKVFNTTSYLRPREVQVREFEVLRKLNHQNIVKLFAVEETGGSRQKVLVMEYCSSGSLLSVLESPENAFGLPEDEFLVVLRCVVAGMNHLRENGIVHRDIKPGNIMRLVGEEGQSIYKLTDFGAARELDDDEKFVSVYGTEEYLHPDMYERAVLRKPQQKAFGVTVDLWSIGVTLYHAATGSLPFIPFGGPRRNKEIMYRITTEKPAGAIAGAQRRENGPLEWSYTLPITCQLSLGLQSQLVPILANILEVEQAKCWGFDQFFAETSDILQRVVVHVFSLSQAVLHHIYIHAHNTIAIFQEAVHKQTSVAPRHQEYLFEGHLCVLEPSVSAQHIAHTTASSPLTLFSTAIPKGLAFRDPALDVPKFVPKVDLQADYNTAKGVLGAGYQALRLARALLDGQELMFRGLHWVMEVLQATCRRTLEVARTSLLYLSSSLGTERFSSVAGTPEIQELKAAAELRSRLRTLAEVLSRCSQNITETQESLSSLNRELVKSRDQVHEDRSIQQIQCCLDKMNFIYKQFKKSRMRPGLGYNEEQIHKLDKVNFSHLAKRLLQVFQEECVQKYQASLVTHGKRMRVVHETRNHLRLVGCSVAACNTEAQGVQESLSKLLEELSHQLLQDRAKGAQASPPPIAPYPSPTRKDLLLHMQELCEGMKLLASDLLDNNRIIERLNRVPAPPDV
The following applies: 1 μM; Run 1, Run 2.

The target of a further assay is T3, ALK2/ACVR1 (Homo sapiens, UniProt Q04771).
T3 construct: purchased Reaction Biology Corporation
T3 sequence (Q04771 21-509): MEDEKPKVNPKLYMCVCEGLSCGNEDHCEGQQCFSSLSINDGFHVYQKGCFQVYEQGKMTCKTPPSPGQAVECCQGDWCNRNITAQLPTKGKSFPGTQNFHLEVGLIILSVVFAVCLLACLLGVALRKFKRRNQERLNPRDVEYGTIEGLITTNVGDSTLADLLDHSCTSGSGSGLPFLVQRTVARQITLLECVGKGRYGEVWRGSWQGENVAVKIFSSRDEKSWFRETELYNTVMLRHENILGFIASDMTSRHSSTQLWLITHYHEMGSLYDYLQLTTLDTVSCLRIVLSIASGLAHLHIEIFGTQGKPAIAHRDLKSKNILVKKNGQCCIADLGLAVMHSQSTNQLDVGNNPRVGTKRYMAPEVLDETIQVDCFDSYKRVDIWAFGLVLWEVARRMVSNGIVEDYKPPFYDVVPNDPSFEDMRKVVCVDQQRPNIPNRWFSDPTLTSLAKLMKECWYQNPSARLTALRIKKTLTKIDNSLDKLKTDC
Put plainly: biochemical. The following applies: Run 1, Run 2; for % enzyme activity: 1 μM; for remaining activity at 1 µM: read-out: % enzyme activity, 1 μM.

In another assay the target is PKN2/PRK2 (Homo sapiens, UniProt Q16513). Put plainly: biochemical. The conditions noted are these: read-out: % enzyme activity, 1 μM; Run 1, Run 2.
Sequence of PKN2/PRK2 (Q16513 whole entry): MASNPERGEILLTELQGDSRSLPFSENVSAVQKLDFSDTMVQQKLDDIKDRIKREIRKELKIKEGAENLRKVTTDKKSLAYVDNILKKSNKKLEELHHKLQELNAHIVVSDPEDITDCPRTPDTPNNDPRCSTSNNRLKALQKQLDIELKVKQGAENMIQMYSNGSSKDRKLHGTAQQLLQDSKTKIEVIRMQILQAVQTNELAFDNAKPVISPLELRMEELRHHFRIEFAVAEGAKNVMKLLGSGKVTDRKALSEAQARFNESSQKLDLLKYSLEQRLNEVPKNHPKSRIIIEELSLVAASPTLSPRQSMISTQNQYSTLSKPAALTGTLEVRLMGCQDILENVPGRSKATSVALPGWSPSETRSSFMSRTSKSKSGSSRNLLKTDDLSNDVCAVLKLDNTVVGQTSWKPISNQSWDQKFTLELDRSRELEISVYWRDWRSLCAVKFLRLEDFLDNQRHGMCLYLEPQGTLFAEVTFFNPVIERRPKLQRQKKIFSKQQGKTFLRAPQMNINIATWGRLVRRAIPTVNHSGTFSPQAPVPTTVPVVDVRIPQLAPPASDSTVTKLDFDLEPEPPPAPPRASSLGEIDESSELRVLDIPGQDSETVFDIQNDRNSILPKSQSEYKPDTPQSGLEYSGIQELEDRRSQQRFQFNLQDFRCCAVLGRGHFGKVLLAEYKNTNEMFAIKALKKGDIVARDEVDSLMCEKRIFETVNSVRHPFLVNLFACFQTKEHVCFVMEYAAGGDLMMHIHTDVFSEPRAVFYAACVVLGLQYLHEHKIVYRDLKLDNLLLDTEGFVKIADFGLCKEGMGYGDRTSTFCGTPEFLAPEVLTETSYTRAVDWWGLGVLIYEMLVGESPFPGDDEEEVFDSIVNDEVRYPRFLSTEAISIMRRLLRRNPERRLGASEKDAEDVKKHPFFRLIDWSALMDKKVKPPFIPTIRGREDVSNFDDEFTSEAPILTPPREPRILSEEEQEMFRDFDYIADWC
In a further assay the target is ABL1 (Homo sapiens, UniProt P00519). The following applies: 1 μM; Run 1, Run 2.
The target of another assay is FLT1/VEGFR1 (Homo sapiens, UniProt P17948). Put plainly: biochemical. The following applies: read-out: % enzyme activity, 1 μM; Run 1, Run 2.
The target of a further assay is PKCa (Homo sapiens, UniProt P17252). The following applies: 1 μM; Run 1, Run 2.
The target in a further assay is TIE2/TEK (Homo sapiens, UniProt Q02763). The experiment in a line: biochemical. The conditions noted are these: read-out: % enzyme activity, 1 μM; Run 1, Run 2.
Sequence of TIE2/TEK (Q02763 23-1124): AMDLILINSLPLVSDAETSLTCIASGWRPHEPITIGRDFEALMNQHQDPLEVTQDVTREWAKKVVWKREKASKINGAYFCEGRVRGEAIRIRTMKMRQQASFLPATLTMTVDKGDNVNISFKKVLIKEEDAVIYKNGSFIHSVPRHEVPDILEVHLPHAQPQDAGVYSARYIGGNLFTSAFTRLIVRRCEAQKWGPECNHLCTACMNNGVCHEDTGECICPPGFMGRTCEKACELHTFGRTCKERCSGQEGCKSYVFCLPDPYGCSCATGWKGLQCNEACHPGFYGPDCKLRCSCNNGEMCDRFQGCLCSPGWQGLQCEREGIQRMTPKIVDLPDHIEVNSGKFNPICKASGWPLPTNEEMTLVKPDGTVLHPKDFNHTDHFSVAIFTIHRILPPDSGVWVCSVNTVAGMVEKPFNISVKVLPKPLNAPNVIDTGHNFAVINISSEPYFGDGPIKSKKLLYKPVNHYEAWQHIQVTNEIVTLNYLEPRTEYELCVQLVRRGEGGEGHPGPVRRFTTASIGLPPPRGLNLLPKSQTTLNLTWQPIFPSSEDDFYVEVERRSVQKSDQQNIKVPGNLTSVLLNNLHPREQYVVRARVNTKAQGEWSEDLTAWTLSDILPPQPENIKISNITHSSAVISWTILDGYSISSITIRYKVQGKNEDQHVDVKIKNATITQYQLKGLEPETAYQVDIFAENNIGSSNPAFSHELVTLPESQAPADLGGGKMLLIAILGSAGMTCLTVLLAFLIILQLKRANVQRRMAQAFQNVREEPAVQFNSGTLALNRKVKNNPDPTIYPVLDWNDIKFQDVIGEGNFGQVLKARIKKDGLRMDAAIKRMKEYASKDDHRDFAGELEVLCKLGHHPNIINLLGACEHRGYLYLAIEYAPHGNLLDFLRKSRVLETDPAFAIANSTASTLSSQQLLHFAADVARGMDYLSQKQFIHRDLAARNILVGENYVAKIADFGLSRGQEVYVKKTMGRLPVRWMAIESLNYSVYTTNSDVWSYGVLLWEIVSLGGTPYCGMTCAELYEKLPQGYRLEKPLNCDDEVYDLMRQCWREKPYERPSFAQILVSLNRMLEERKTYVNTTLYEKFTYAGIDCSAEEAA
In another assay the target is T4, DYRK3 (Homo sapiens, UniProt O43781).
T4 sequence (O43781 1-588): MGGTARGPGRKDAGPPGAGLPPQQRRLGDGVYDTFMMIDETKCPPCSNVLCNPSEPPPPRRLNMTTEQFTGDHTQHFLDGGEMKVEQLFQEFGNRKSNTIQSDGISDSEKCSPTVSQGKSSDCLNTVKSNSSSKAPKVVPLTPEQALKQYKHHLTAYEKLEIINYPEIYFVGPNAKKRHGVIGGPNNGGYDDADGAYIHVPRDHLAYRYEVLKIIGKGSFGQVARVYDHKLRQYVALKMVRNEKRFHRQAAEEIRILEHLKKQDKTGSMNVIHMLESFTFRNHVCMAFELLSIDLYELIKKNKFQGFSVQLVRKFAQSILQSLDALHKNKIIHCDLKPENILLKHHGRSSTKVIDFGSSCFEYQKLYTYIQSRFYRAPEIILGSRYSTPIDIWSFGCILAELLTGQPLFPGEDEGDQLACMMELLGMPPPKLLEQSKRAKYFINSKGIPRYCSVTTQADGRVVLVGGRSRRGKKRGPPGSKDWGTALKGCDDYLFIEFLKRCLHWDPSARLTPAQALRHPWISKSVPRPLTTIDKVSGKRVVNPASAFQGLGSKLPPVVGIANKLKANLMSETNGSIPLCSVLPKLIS
The conditions noted are these: 1 μM; Run 1, Run 2.

In the next assay the target is CAMK2b (Homo sapiens, UniProt Q13554). The following applies: 1 μM; Run 1, Run 2.
A further assay concerns the target CDK18/cyclin Y (PCTK3) (Homo sapiens, UniProt Q07002). Put plainly: biochemical. The conditions noted are these: read-out: % enzyme activity, 1 μM; Run 1, Run 2.
Another assay deals with JAK2 (Homo sapiens, UniProt O60674). The following applies: 1 μM; Run 1, Run 2.
Sequence of JAK2 (O60674 whole entry): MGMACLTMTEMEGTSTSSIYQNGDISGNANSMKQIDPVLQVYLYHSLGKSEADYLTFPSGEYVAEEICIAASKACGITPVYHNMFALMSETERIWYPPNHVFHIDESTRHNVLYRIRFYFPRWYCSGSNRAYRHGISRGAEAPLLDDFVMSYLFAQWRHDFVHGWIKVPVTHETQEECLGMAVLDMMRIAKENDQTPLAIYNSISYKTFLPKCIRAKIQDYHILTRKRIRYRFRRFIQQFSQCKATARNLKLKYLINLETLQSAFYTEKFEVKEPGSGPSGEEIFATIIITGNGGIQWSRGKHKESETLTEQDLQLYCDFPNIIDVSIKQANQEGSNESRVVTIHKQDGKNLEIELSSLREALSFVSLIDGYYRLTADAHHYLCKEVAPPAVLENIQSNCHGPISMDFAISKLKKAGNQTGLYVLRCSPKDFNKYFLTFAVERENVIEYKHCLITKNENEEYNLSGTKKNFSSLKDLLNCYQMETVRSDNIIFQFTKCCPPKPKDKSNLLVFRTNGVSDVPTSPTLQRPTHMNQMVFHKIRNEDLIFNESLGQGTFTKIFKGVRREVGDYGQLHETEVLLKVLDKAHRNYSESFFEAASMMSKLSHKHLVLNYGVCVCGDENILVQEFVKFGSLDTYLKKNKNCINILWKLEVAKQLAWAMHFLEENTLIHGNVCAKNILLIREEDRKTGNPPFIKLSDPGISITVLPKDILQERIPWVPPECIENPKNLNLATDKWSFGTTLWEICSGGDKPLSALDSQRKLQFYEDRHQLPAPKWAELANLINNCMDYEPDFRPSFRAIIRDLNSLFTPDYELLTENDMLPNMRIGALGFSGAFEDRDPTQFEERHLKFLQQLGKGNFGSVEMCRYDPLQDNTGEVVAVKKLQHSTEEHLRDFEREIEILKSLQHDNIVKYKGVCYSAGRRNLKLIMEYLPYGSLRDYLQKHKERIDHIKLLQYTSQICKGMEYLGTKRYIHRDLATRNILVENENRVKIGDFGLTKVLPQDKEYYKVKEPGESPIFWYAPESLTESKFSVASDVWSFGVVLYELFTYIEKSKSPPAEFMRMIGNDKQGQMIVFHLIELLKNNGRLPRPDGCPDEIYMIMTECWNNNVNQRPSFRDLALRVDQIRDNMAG

Sequence of CDK18/cyclin Y (PCTK3) (Q07002 whole entry): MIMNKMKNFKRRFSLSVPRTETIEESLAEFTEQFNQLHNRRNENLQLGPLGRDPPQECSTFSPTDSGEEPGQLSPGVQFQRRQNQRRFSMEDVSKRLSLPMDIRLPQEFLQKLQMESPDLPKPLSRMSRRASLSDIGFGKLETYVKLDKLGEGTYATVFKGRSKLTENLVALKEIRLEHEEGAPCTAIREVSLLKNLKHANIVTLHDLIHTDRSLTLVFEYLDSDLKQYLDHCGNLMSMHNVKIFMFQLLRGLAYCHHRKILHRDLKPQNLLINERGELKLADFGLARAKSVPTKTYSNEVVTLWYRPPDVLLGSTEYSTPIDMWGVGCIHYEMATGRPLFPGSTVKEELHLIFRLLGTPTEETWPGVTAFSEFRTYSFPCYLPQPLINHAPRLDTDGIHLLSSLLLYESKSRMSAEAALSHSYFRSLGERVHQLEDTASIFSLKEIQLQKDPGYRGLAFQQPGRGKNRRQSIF
Sequence of CDK18/cyclin Y (PCTK3) (Q8ND76 whole entry partner): as the sequence (Q8ND76 whole entry partner) above

Take `COc1cc(-c2cncc(-c3ccc(N4C[C@@H](C)N(C)[C@@H](C)C4)cc3)c2C)cc(F)c1C(N)=O` [Compound 26c, 2-Fluoro-6-methoxy-4-(4-methyl-5-(4-((3R,5S)-3,4,5-trimethylpiperazin-1-yl)phenyl)pyridin-3-yl)benzamide]: the “% enzyme activity” value at TAK1 is given as 98.46%; on CDK17/cyclin Y (PCTK2) it was 99.91%; at MRCKb/CDC42BPB, 99.47%; at IKKe/IKBKE, 94.75%; at ALK2/ACVR1 it was 11.70%; at ABL1, 82.07%. For the same compound, the “% enzyme activity” value on PKCa came to 89.76%; at DYRK3 it was 96.01%; on CAMK2b, 91.32%; on JAK2, 88.17%. Besides, the remaining activity at 1 µM on ALK2/ACVR1 is 13.7%; at PKN2/PRK2, 95.9%; on FLT1/VEGFR1, 108%; on TIE2/TEK, 93.4%; on CDK18/cyclin Y (PCTK3), 99%.

As to `COc1cc(-c2cncc(-c3ccc(N4CCN(C)CC4)cc3)c2C)cc(F)c1C(N)=O` [Compound 26a, 2-Fluoro-6-methoxy-4-(4-methyl-5-(4-(4-methylpiperazin-1-yl)phenyl)pyridin-3-yl)benzamide], the “% enzyme activity” value at TAK1 came to 97.44%; on CDK17/cyclin Y (PCTK2), 95.45%; at MRCKb/CDC42BPB, 94.42%; on IKKe/IKBKE it was 87.51%; on ALK2/ACVR1, 8.63%; on ABL1, 75.12%. Besides, the “% enzyme activity” value on PKCa amounted to 89.62%; on DYRK3, 88.30%; at CAMK2b it was 83.40%; on JAK2, 92.09%. For the same compound, the remaining activity at 1 µM on ALK2/ACVR1 was 9.92%; on PKN2/PRK2 it was 94.5%; at FLT1/VEGFR1, 107%; at TIE2/TEK, 93.8%; on CDK18/cyclin Y (PCTK3), 102%.
